Reference: US20250222011A1, “DRUG TARGET FOR INHIBITING TUMOR, USE, AND ORAL DRUG” (CHI BIOTECH CO., LTD., priority 2024, published 2025)

Assays:
Vinculin = biological target: T1, Vinculin (Homo sapiens, UniProt P18206); assay: CESTA-WB (cellular thermal shift assay-Western blotting), H1299 cell lysate; type: binding; details: ATCA 10 nM to 10 mM, 55° C. for 3 min, FIG. 1
T1 construct: endogenous in cells; host or cells: H1299
T1 sequence (P18206 1-1066 isoform P18206-2): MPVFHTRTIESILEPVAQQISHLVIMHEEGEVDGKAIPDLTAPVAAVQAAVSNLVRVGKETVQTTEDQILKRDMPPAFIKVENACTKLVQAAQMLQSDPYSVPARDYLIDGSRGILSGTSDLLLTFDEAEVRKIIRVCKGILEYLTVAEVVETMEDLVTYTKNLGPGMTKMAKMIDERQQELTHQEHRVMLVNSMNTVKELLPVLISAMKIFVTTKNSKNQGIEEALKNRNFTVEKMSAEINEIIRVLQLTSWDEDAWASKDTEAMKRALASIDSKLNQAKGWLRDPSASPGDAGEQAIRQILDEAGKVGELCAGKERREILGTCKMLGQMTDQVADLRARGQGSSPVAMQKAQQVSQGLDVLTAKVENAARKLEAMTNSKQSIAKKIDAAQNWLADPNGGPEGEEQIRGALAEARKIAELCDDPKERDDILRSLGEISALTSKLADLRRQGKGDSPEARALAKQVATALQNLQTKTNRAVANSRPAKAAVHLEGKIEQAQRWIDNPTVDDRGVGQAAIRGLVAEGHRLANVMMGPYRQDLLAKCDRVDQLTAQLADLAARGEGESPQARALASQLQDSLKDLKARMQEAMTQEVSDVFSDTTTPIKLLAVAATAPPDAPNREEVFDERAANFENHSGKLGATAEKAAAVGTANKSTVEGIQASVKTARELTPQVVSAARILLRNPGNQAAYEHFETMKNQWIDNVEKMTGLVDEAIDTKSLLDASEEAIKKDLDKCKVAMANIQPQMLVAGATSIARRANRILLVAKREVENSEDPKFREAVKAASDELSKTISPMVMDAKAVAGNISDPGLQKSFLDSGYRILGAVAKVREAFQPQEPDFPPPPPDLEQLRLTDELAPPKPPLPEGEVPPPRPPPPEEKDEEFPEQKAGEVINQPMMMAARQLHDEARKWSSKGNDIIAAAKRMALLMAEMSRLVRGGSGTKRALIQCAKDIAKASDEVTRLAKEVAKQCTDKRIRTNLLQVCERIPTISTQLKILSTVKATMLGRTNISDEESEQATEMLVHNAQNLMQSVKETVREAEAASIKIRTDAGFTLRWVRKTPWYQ
Procedure: (§1) CESTA-WB experiment: H1299 cells were plated and cultured in a 15 cm dish, and when a cell density reached about 90% to 100%, the medium was aspirated; the cells were washed twice with PBS, and 2 mL of Lysis Buffer (RB Buffer, 10% N-Dodecyl-β-D-maltoside, and 1× protease inhibitor) was added to each dish and placed flatly on ice to allow lysis for 30 min, and a cell lysate was collected and centrifuged at 17,000 g, 4° C. for 10 min; a resulting supernatant was quantified using a BCA kit. 45 μL of a whole protein was added in a PCR tube, ATCA was added to final concentrations of 10 mM, 1 mM, 100 μM, 10 μM, 1 μM, 100 nM, and 10 nM, respectively, and allowed to stand at 25° C. for 30 min to allow the ATCA to fully interact with the whole protein; while another two tubes without ATCA were taken as controls. The experimental group was treated at 55° C. for 3 min, while one tube in the control group was treated at 37° C. for 3 min, and the other tube was treated at 50° C. for 3 min; centrifugation was conducted at 17,000×g for 10 min at 4° C. to remove denatured proteins. The supernatant was transferred into a new PCR tube, and 5 μg of the supernatant was added into 5×SDS Loading Buffer to allow denaturation in a 100° C. water bath; the Western Blotting was conducted to quantify EEF2, EIF2S1, B-actin, and Vinculin proteins.
(§2) Western Blotting experiment: the sample and molecular weight standard of pre-stained protein were loaded onto an SDS-PAGE gel (10 cmx 10 cm) to allow electrophoresis at 100 V for 40 min. The proteins in SDS-PAGE were transferred to nitrocellulose membrane at 100 V, 230 mA within 1 h. After transfer, the nitrocellulose membrane was washed with 25 mL of TBS for 5 min at room temperature. The nitrocellulose membrane was placed in 25 mL of blocking buffer (TBST, 5% skim milk) and incubated at room temperature for 1 h. The membrane was washed three times with 15 mL TBST, 5 min each. […]

EEF2 = biological target: T2, EEF2 (Homo sapiens, UniProt P13639); assay: as above; type: binding; details: ATCA 10 nM to 10 mM, 55° C. for 3 min, FIG. 1
T2 construct: a cell lysate was collected and centrifuged at 17,000 g; endogenous in cells; host or cells: H1299
Procedure: as §1, §2

With `O=C(O)C1=CC(=C(c2ccc(O)c(C(=O)O)c2)c2ccc(O)c(C(=O)O)c2)C=CC1=O` [ATCA, aurintricarboxylic acid] as the molecule, how does the “binding to non-target protein Vinculin” value (Vinculin) read?
The value was “did not bind”.

And the “binding to non-target protein EEF2” value (EEF2)?
Its value is “did not bind”.
